Experimental data published in US6187802A, “Substituted 4-arylmethylene-2-imino-2,3-dihydrothiazoles and derivatives and their pharmaceutical use” (Knoll Aktiengesellschaft, priority 1997, dated 2001).
Counter-ions that a name gives are not always drawn.

How the values were obtained:
[1] = biological target: T1, dopamine (DA) reuptake sites (Rattus norvegicus, UniProt P23977); experiment: displacement of [3H]GBR 12935 from dopamine reuptake sites, striatal membranes; assay type: binding; details: 10^-6 M test compound, [3H]GBR 12935 1 nM, one test only; for inhibition at 1 µM: read-out: DA uptake (% displacement of specific binding of tritiated ligand)
T1 construct: Striatal tissue from the brains of male Charles River rats weighing 150-250 g; from tissue; host or cells: rat brain striatum (crude synaptosomes in A1, washed membranes in A4)
T1 sequence (P23977 whole entry): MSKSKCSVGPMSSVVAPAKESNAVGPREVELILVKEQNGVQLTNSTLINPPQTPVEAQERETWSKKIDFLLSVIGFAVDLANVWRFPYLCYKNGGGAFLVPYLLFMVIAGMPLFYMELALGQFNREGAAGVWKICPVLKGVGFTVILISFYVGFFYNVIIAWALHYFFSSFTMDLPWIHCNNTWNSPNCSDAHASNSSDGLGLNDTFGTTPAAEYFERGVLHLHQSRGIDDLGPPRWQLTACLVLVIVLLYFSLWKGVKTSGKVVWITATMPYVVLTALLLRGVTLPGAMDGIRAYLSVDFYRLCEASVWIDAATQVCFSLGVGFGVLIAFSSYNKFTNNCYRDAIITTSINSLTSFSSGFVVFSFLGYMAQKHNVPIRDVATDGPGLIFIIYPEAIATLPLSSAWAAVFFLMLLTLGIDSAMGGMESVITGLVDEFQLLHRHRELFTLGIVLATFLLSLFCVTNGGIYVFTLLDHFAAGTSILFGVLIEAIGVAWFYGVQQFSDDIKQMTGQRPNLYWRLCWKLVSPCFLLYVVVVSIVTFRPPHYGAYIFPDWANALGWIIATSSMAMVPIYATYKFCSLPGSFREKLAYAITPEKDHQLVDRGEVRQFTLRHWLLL
Procedure: Striatal tissue from the brains of male Charles River rats weighing 150-250 g was homogenised in ice-cold 0.32M sucrose (1:80 w/v) using a motor driven teflon pestle (12 strokes, 800 rpm) and centrifuged at 1000 g for 12 minutes. The supernatant was stored on ice and the pellet was resuspended in 0.32M sucrose (1:80 w/v) and centrifuged at 850 g for 10 minutes. Combined supernatants were diluted to 1:320 w/v with ice-cold 50 mM Tris-HCl, pH 7.4 (at 25° C.) containing 200 mM sodium chloride and 5 mM potassium chloride (Tris buffer) and centrifuged at 40,000 g for 10 minutes. The resulting pellet was resuspended in 10 ml of 50 mM Tris buffer, incubated at 37° C. for 10 min, diluted in 50 mM Tris buffer (1:320 w/v) and recentrifuged at 40,000 g for 10 minutes. The final pellet was resuspended in 50 mM Tris buffer (equivalent to 1.25 mg wet weight of tissue/ml) and used immediately in the binding assay. All centrifugations were carried out at 4° C.
Membranes (800 μl; equivalent to 1 mg wet weight of tissue/tube) were incubated with 100 μl [^3 H]GBR 12935 at a single concentration of 1 nM and 100 μl of distilled water (total binding) or 100 μl of test compound (10^-6 M) or 100 μl of mazindol (1 μM; non-specific binding) for 90 min at 4° C.
Membrane bound radioactivity was recovered by filtration under vacuum through Whatman GF/C filters, pre-soaked for 1 h in 0.5% polyethylenimine,using a Brandel cell harvester. Filters were rapidly washed with 16 ml of ice-cold 50 mM Tris-HCl, pH 7.4 and radioactivity determined by liquid scintillation counting (2 ml Packard MV Gold scintillator).
(§1) For each of these tests measuring the ability of compounds of Formula I to displace standard ligands from dopamine (DA), 5-hydroxytryptamine (5-HT) and noradrenaline (NA) reuptake sites in vitro, the percentage displacement of specific binding of tritiated ligand by 10^-6 M test compound was calculated in the following way:
(§2) Firstly, specific binding of tritiated ligand in the absence (A) and presence (B) of test compound was determined:
(§3) In the absence of compound:
(§4) A (dpm)=Total binding (dpm)-Non-specific binding (dpm)
(§5) In the presence of compound (10^-6 M):
(§6) B (dpm)=Binding at 10^-6 M (dpm)-Non-specific binding (dpm)
(§7) The specific binding of tritiated ligand in the presence (B) of compound was then converted to a percentage of specific binding of tritiated ligand in the absence (A) of compound:
(§8) % Specific binding at 10^-6 M=B (dpm)/A(dpm)×100
(§9) The percentage displacement of specific binding of trtiated ligand by the test compound (10^-6 M) was then obtained by subtraction of the percentage specific binding in the presence of compound from the percentage specific binding in the absence of compound, which is taken as the maximum binding and so equals 100%:
(§10) % Displacement at 10^-6 M=100-% Specific binding at 10^-6 M.
(§11) The values given below in Table 2 for examples 6 to 76 are % displacement of specific binding of tritiated ligand by 10^-6 M test compound and represent results from one test only. IA refers to <50% displacement.

[2] = biological target: T2, 5-hydroxytryptamine (5-HT) reuptake sites (Rattus norvegicus, UniProt P31652); experiment: displacement of [3H]paroxetine from 5-HT reuptake sites, frontal cortical membranes; assay type: binding; details: 10^-6 M test compound, [3H]paroxetine 30 pM, one test only; for inhibition at 1 µM: read-out: 5-HT uptake (% displacement of specific binding of tritiated ligand)
T2 construct: Frontal cortical tissue from the brains of male Sprague-Dawley rats; from tissue; host or cells: rat brain frontal cortex (crude synaptosomes in A2, washed membranes in A5)
T2 sequence (P31652 whole entry): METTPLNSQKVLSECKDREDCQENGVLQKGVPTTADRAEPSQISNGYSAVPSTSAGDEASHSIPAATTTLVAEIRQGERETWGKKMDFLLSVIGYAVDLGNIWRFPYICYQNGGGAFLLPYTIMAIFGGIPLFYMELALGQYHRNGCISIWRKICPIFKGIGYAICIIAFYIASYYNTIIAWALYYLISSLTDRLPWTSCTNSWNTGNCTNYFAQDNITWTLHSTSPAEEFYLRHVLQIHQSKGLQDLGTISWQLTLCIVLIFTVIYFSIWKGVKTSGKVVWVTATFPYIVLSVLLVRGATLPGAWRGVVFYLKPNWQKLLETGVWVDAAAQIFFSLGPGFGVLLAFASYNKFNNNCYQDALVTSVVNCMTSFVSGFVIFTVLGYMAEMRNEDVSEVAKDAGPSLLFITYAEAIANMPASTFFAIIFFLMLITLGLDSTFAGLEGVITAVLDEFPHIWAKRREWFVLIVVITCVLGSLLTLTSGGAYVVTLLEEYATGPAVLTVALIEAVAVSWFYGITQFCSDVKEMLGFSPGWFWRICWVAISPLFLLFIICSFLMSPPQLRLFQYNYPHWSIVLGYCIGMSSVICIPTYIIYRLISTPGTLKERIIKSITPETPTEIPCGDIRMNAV
Procedure: Frontal cortical tissue from the brains of male Charles River rats weighing 150-250 g was homogenised in ice-cold 0.25M sucrose (1:30 w/v) using a Kinematic polytron (speed setting 6 for 30 seconds) and centrifuged at 1000 g for 12 minutes. The supernatant was stored on ice and the pellet was resuspended in 0.25M sucrose (1:20 w/v) and centrifuged at 850 g for 10 minutes. Combined supernatants were diluted to 1:100 w/v with ice-cold 50 mM Tris-HCl, pH 7.5 (at 25° C.) containing 120 mM sodium chloride and 5 mM potassium chloride (Tris buffer) and centrifuged at 40,000 g for 10 minutes. The resulting pellet was resuspended in 50 mM Tris buffer (1:100 w/v) and recentrifuged at 40,000 g for 10 minutes. The final pellet was resuspended in 50 mM Tris buffer (equivalent to 2 mg wet weight of tissue/ml) and used immediately in the binding assay. All centrifugations were carried out at 4° C.
Membranes (1000 μl; equivalent to 2 mg wet weight of tissue/tube) were incubated with 200 μl [^3 H]paroxetine at a single concentration of 30 pM and 200 μl of distilled water (total binding) or 200 μl of test compound (10^-6 M) or 200 μl of citalopram (1 μM; non-specific binding) for 2 h at 22° C.
Membrane bound radioactivity was recovered by filtration under vacuum through Whatman GFIC filters using a Brandel cell harvester. Filters were rapidly washed with 16 ml ice-cold 50 mM Tris buffer and radioactivity determined by liquid scintillation counting (2 ml Packard MV Gold scintillator).
as §1, §2, §3, §4, §5, §6, §7, §8, §9, §10, §11

[3] = biological target: T3, noradrenaline (NA) reuptake sites (Rattus norvegicus, UniProt Q63380); experiment: displacement of [3H]nisoxetine from noradrenaline reuptake sites, frontal cortical membranes; details: 10^-6 M test compound, [3H]nisoxetine 0.6 nM, one test only, read-out: NA uptake (% displacement of specific binding of tritiated ligand)
T3 construct: Frontal cortical tissue from the brains of male Sprague-Dawley rats; from tissue; host or cells: rat brain frontal cortex (crude synaptosomes in A3, washed membranes in A6)
T3 sequence (Q63380 1-617): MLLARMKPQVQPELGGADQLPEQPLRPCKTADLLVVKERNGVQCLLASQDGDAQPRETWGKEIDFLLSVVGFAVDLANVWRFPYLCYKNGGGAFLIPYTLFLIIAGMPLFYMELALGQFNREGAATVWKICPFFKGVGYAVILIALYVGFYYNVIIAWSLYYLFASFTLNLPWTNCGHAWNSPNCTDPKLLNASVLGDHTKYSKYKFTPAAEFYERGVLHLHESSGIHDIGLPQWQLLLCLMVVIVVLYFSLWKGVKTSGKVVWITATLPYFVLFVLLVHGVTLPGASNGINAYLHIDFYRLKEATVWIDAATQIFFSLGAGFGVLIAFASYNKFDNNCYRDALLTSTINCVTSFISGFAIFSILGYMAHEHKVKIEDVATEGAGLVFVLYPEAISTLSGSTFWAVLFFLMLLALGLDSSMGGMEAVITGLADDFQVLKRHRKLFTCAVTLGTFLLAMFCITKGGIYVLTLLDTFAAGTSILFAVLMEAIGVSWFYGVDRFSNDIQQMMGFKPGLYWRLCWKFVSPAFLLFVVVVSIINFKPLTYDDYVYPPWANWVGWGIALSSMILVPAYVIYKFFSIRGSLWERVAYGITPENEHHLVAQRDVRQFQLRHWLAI
Procedure: Frontal cortical tissue from the brains of male Charles River rats weighing 150-250 g was homogenised in ice-cold 50 mM Tris-HCl, pH 7.4 (at 25° C.) containing 120 mM sodium chloride and 5 mM potassium chloride (Tris buffer; 1:60 w/v) using a Kinematic polytron (speed setting 6 for 30 seconds) and centrifuged at 40,000 g for 10 minutes. The supernatant was discarded and the pellet rehomogenised in Tris buffer, 1:60 w/v, and centrifuged at 40,000 g for 10 minutes. This step was repeated twice more so that, in total, the brain tissue was homogenised and centrifuged four times. The final pellet was resuspended in 50 mM Tris-HCl, pH 7.4 containing 300 mM sodium chloride and 5 mM potassium chloride (equivalent to 25 mg wet weight of tissue/ml) and used immediately in the binding assay. All centrifugations were performed at 4° C.
Membranes (400 μl; equivalent to 10 mg wet weight of tissue/tube) were incubated with 50 μl [^3 H]nisoxetine at a single concentration of 0.6 nM and 50 μl of distilled water (total binding) or 50 μl of test compound (10^-6 M) or 50 μl of mazindol (1 μM; non-specific binding) for 4 h at 4° C.
Membrane bound radioactivity was recovered by filtration under vacuum through Skatron 11734 filters using a Skatron cell harvester. Filters were rapidly washed with ice-cold 50 mM Tris-HCl, pH 7.4 containing 120 mM sodium chloride and 5 mM potassium chloride (wash setting 9,9,0) and radioactivity determined by liquid scintillation counting (1 ml Packard MV Gold scintillator).
as §1, §2, §3, §4, §5, §6, §7, §8, §9, §10, §11

Row | SMILES | inhibition at 1 µM [1] [%] | inhibition at 1 µM [2] [%] | inhibition at 1 µM [3] [%] | DA uptake (% displacement of specific binding of tritiated ligand) ([1]; hydrobromide, 1 µM) [%] | 5-HT uptake (% displacement of specific binding of tritiated ligand) ([2]; 1 µM, hydrobromide) [%]
1 | Fc1cccc(C2(C3=CSC4=NCCN34)CCC2)c1 [Example 75, 3-[1-(3-Fluorophenyl)cyclobutyl]-5,6-dihydroimidazo[2,1-b]thiazole hydrobromide] | < 50 | 53 | < 50 |  | 
2 | COc1ccc(CCN=c2scc(C3(c4ccc(Br)cc4)CCC3)n2CCc2ccc(OC)c(OC)c2)cc1OC [Example 66, 4-[1-(4-Bromophenyl)cyclobutyl]-3-(3,4-dimethoxyphenethyl)-2-(3,4-dimethoxyphenethylimino)-2,3-dihydrothiazole hydrobromide] | 58 | < 50 | < 50 |  | 
3 | C=CCN=c1scc(C2(c3ccc4ccccc4c3)CCC2)n1CC=C [Example 42, 3-Allyl-2-allylimino-4-[1-(2-naphthyl)cyclobutyl]-2,3-dihydrothiazole hydrobromide] | 113 | 101 | 93 |  | 
4 | COc1ccc(CCN=c2scc(C3(c4ccc(Cl)cc4)CCC3)n2CCc2ccc(OC)c(OC)c2)cc1OC [Example 65, 4-[1-(4-Chlorophenyl)cyclobutyl]-3-(3,4-dimethoxyphenethyl)-2-(3,4-dimethoxyphenethylimino)-2,3dihydrothiazole hydrobromide] | 54 | < 50 | < 50 |  | 
5 | Cc1ccccc1N=c1scc(C2(c3ccc4ccccc4c3)CCC2)n1-c1ccccc1C [Example 51, 4-[1-(2-Naphthyl)cyclobutyl)-3-(o-tolyl)-2-(o-tolylimino)-2,3-dihydrothiazole hydrobromide] | 69 | 54 | < 50 |  | 
6 | CCCCN=c1scc(C2(c3ccc(SC)cc3)CCC2)n1CCCC [Example 58, 3-Butyl-2-butylimino-4-[1-(4-methylthiophenyl)cyclobutyl]-2,3-dihydrothiazole hydrobromide] | 92 | < 50 | < 50 |  | 
7 | CCCCN=c1scc(C2(c3ccc(Cl)cc3)CCCC2)n1CCCC [Example 60, 3-Butyl-2-butylimino-4-[1-(4-chlorophenyl)cyclopentyl]-2,3-dihydrothiazole hydrobromide] | 106 | < 50 | < 50 |  | 
8 | CCOc1ccc(N=c2scc(C3(c4ccc(Cl)c(Cl)c4)CCC3)n2-c2ccc(OCC)cc2)cc1 [Example 32, 4-[1-(3,4-Dichlorophenyl)cyclobutyl]-3-(4-ethoxyphenyl)-2-(4-ethoxyphenylimino)-2,3-dihydrothiazole hydrobromide] | 69 | < 50 | < 50 |  | 
9 | Clc1ccc(C2(c3csc(=NCc4ccccc4)n3Cc3ccccc3)CCC2)cc1Cl [Example 22, 3-Benzyl-2-benzylimino-4-[1-(3,4-dichlorophenyl)cyclobutyl]-2,3-dihydrothiazole hydrobromide] | 79 | < 50 | < 50 |  | 
10 | c1coc(CN=c2scc(C3(c4ccc5ccccc5c4)CCC3)n2Cc2ccco2)c1 [Example 48, 3-Furfuryl-2-furfurylimino-4-[1-(2-naphthyl)cyclobutyl]-2,3-dihydrothiazolehydrobromide] | 101 | 94 | < 50 |  | 
11 | Clc1ccc(C2(C3=CSC4=NCCN34)CCCC2)cc1 [Example 71, 3-[1-(4-Chlorophenyl)cyclopentyl]-5,6-dihydroimidazo[2,1-b]thiazole hydrobromide] | 96 | < 50 | 76 |  | 
12 | CC(C)CN=c1scc(C2(c3ccc4ccccc4c3)CCC2)n1CC(C)C [Example 41, 3-lsobutyl-2-isobutylimino-4-[1-(2-naphthyl)cyclobutyl]-2,3-dihydrothiazolehydrobromide] | 107 | 98 | 79 |  | 
13 | Clc1ccc(C2(c3csc(=Nc4ccccc4)n3-c3ccccc3)CCC2)cc1Cl [Example 27, 4-[1-(3,4-Dichlorophenyl)cyclobutyl]-3-phenyl-2-phenylimino-2,3-dihydrothiazole hydrobromide] | 84 | < 50 | < 50 |  | 
14 | FC(F)(F)c1cccc(N=c2scc(C3(c4ccc(Cl)c(Cl)c4)CCC3)n2-c2cccc(C(F)(F)F)c2)c1 [Example 30, 4-[1-(3,4-Dichlorophenyl)cyclobutyl]-3-(3-trifluoromethylphenyl)-2-(3-trifluoromethylphenylimino)-2,3-dihydrothiazole hydrobromide] | 79 | < 50 | < 50 |  | 
15 | Br.CC(C)(C1=CSC2=NCCN12)c1ccc(Cl)c(Cl)c1 [Example 74, 3-[1-(3,4-Dichlorophenyl)-1-methylethyl]-5,6-dihydroimidazo[2,1-b]thiazole hydrobromide] |  |  |  | 97 | 52
